Data reported in patent US20250188083A1, “Modulators of Histone Acetyltransferase 1 and Methods of Treatment Thereof” (The Board of Trustees of the Leland Stanford Junior …, priority 2021, published 2025).
Where “and” joins values, the source holds several entries; their conditions need not be identical. Equal values may be shown once.

What was measured:
[1] = target: HAT1/Rbap46 enzyme complex (Homo sapiens, UniProt O14929); experiment: HAT1 acetylation (acetyl-click) assay with 4-pentynoyl-CoA; type: biochemical; details: for HAT1 inhibitory activity in library screens (rank, active or inactive): single-dose screening; for IC50: dose-response, 4-pentynoyl-CoA co-factor, read-out: IC50 for HAT1 enzymatic inhibition; for inhibition of HAT1/Rbap46 by bi-substrate inhibitors: 10 μM; for HAT1 inhibitory activity of flavonoids in dose-response: dose-response curves, FIG. 13
Sequence of HAT1/Rbap46 enzyme complex (Q16576 whole entry partner, one chain of several): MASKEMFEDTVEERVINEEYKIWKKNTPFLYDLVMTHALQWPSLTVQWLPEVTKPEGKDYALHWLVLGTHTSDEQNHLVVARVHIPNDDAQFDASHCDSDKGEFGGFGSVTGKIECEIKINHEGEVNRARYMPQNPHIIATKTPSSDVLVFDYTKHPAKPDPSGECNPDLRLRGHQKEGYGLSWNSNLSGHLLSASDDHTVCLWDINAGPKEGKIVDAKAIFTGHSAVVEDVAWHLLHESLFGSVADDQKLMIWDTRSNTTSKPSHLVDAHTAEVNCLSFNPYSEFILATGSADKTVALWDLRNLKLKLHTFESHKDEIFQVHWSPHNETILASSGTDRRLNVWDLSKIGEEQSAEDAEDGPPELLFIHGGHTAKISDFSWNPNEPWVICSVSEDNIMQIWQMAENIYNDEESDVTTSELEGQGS
Experimental: FIG. 6 provides a schematic of a histone acetyltransferase 1 (HAT1) acetylation assay in accordance with various embodiments. HAT1/Rbap46 purified enzyme complex is incubated with 4-pentynoyl-CoA and histone H4 N-terminal biotinylated peptide in the presence or absence of test compounds. Then reaction products are bound to neutravidin 96-well plate, washed, functionalized by copper(I)-catalyzed cycloaddition click chemistry with biotin-azide. Then, streptavidin-HRP is bound and detected by amplex red fluorescence reaction.
Percent inhibition was calculated according the following formula: […]

[2] = system: HCC1806 cell line; experiment: Cell growth inhibition (CellTiter-Blue / resazurin); type: cell-based, human
Experimental: (§1) hTert-HME1, HCC1806, HCC1937, A549 were maintained in a humified incubator at 37deg C. with 5% CO2. HCC1806 and HCC1937 were grown in RPMI with 10% FBS and 1% penicillin-streptomycin. A549 was grown in F-12 media with 10% FBS and 1% penicillin-streptomycin. hTert-HME1 was grown in Mammary Epithelial Growth Media (PromoCell). Drug treatments were performed in 96-well plates. Cells were seeded at 5000 cells per well, then allowed to attach overnight. Drug dilutions were made in 96-well plates then transferred to plate containing cells and incubated for 48-72 hours. Cell density was then determined by CellTiter-Blue (Promega). For capillary immunoassays hTert-HME1 5E5 cells were seeded in 10 cm plates and cultured for 48 hours, then cells were washed 2× in PBS and EGF-free MEGM was added overnight. The next day, cells were treated in EGF-free media with 1% dialyzed BSA+drug for 30 minutes, then EGF was added to the plate and cells were cultured for 8, 10 and 12 hours before harvesting. Microcapillary immunoassays were performed on a SimpleWestern Wes instrument using H4K12-Ac antibody (Abcam ab46983) at 1:25 dilution, H4K5-Ac antibody (Millipore 07-327) at 1:50 dilution, HAT1 (Abcam ab194296) at 1:50 dilution, nascent H4 (Abcam ab7311) at 1:10 dilution, nascent H3 (Abcam ab18521) at 1:50 dilution, actin (Thermo-Fisher MA5-15452) at 1:100 dilution.

[3] = target: T1, bacterially-expressed recombinant HAT1 (Homo sapiens, UniProt O14929); details: Ngo, Brown, Zheng 2019; read-out: Ki towards recombinant HAT1; cited from earlier work
T1 sequence (O14929 1-419): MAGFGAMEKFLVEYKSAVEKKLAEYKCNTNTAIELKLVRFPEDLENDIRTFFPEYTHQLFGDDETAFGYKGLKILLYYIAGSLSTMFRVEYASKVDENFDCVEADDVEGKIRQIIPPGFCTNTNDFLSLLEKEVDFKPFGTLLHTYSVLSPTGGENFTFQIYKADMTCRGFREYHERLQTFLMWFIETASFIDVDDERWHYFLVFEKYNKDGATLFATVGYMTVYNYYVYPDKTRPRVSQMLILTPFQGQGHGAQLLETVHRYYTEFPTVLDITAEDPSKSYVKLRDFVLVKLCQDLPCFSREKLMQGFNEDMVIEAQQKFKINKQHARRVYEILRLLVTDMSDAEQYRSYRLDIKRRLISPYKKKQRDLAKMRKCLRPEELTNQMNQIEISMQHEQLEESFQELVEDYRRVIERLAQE

[4] = mouse, in vivo, ip
[5] = target: T2, p300 (Homo sapiens, UniProt Q09472); experiment: Other acetyltransferase assay (3H-Acetyl-CoA, Creative Biomart); type: biochemical; details: 10-point dose curve from 100 μM
T2 construct: Creative Biomart (assay service)
Experimental: (§2) Acetylation assays on 7 targets (CBP, GCN5, KAT5, MYST2/KAT7, MYST4/KAT6b, p300, pCAF) was performed by Creative Biomart. […] Reaction buffer was 50 mM Tris-HCL, 0.1 mM EDTA, 250 mM NaCl, 1 mM DTT, 1% DMSO, pH 8.0, using 3 μM 3H-Acetyl-CoA, reaction time of 1 hour at 30 degrees Celsius, with substrate conversion rate between 5-20%. Enzymes were diluted in reaction buffer, followed by addition of compound with Acoustic Technology in nanoliter range, incubated at room temperature for 20 minutes, then 3H-Acetyl-CoA was added. Reaction was incubated at 30 minutes at 30 degrees Celsius, then transferred to filter paper for detection.

[6] = target: T3, KAT5 (Homo sapiens, UniProt Q92993); experiment: as above; type: biochemical; details: 10-point dose curve from 100 μM
T3 construct: Creative Biomart (assay service)
T3 sequence (Q92993 whole entry): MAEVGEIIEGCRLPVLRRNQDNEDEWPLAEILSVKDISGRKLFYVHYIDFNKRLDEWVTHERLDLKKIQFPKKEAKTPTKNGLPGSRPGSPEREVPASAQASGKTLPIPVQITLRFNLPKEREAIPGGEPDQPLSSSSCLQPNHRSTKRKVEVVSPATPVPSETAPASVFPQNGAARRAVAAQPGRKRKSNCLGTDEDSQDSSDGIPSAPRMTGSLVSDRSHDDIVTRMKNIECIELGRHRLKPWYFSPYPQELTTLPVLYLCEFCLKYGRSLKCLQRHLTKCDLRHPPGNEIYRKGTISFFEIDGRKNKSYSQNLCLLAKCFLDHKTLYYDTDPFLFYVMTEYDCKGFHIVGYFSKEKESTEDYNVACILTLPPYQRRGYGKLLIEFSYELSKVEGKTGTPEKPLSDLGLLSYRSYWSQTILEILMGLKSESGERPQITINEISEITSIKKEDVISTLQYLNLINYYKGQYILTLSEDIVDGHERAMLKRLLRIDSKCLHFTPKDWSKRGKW
Experimental: as §2

[7] = target: T4, CBP (Homo sapiens, UniProt Q92793); experiment: as above; type: biochemical; details: 10-point dose curve from 100 μM
T4 construct: Creative Biomart (assay service)
T4 sequence (Q92793 whole entry): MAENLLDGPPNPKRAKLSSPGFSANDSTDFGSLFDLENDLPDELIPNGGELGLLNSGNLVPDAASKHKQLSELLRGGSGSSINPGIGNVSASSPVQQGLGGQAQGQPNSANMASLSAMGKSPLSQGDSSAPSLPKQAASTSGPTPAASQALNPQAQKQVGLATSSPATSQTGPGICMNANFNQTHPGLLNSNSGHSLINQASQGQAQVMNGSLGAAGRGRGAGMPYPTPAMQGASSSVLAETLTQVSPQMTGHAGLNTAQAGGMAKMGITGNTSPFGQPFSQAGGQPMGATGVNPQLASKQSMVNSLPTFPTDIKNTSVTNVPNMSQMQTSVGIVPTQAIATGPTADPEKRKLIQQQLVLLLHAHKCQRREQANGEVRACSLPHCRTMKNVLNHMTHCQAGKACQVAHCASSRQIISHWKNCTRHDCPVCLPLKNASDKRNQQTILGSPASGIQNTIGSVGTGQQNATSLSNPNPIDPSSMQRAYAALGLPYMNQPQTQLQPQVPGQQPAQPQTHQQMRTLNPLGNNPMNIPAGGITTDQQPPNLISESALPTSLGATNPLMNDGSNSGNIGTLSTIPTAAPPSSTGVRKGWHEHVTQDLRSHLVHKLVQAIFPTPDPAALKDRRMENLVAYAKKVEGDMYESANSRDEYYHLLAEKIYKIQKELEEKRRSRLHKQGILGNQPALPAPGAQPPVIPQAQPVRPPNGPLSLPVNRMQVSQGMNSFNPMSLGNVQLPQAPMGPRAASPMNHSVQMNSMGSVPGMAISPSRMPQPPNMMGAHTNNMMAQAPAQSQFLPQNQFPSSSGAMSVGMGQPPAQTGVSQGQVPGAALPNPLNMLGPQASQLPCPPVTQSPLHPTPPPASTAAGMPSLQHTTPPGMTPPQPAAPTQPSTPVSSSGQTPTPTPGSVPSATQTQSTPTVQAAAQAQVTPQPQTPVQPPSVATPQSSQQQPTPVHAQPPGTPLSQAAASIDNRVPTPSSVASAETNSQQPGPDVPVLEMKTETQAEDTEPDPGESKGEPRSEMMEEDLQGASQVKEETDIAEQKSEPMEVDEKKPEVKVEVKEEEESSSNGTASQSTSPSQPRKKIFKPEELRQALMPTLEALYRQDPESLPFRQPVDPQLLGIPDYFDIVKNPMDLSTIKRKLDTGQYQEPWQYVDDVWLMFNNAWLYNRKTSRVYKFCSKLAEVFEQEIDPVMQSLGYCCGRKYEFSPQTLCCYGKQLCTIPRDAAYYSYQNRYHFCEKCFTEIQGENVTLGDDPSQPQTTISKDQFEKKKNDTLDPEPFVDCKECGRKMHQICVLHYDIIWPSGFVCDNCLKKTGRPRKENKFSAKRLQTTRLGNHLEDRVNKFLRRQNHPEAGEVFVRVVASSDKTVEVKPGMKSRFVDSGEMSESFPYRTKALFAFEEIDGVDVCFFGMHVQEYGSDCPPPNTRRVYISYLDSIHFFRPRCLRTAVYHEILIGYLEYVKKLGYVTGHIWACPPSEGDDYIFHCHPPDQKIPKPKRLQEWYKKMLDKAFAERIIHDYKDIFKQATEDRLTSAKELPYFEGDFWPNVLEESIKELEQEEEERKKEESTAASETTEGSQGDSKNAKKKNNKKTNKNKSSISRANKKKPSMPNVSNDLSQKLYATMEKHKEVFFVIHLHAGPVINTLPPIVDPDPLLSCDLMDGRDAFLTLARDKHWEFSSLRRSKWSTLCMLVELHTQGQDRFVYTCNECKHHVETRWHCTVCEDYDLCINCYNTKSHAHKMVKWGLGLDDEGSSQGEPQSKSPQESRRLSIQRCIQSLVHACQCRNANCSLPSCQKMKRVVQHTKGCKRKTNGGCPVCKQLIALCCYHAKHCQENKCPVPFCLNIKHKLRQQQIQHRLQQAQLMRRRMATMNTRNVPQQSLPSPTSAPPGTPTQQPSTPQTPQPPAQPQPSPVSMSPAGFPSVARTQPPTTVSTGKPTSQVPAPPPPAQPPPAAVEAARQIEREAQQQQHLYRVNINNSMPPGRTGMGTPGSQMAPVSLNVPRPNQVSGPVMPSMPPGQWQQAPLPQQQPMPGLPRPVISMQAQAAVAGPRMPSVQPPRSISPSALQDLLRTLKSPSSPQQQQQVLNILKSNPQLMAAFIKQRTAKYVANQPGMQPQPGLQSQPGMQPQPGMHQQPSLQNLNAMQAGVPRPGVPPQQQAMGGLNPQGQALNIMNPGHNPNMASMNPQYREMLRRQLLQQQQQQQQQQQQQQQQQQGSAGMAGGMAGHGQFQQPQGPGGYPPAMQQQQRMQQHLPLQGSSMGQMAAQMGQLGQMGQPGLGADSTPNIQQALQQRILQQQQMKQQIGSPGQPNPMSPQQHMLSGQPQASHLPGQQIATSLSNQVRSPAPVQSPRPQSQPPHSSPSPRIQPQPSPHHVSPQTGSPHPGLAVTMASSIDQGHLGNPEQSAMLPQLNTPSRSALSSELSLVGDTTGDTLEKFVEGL
Experimental: as §2

[8] = target: T5, PCAF (Homo sapiens, UniProt Q92831); experiment: as above; type: biochemical; details: 10-point dose curve from 100 μM
T5 construct: Creative Biomart (assay service)
T5 sequence (Q92831 whole entry): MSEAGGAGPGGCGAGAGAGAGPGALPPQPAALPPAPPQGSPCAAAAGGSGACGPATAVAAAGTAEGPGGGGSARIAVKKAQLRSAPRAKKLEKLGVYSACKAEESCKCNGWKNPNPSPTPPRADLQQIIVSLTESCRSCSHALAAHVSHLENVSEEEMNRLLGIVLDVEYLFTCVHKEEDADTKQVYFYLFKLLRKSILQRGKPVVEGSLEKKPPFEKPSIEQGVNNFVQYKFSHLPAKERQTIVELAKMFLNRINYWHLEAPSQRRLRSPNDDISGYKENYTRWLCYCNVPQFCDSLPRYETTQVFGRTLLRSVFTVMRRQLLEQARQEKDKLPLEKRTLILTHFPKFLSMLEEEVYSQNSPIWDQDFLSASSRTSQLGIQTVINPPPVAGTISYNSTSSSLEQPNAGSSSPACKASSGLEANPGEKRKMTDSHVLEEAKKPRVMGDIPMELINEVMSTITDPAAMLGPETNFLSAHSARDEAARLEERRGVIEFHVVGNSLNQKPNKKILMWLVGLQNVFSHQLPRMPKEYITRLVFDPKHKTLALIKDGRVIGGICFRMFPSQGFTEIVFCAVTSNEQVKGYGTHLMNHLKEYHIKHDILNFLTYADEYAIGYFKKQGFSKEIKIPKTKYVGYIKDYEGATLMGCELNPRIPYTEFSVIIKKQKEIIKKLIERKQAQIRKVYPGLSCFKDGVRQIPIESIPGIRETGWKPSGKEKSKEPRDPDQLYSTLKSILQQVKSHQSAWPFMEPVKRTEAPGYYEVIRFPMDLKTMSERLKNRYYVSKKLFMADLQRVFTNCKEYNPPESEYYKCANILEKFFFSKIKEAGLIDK
Experimental: as §2

[9] = target: T6, GCN5 (Homo sapiens, UniProt Q92830); experiment: as above; type: biochemical; details: 10-point dose curve from 100 μM
T6 construct: Creative Biomart (assay service)
Experimental: as §2

[10] = target: T7, MYST2/KAT7 (Homo sapiens, UniProt O95251); experiment: as above; type: biochemical; details: 10-point dose curve from 100 μM
T7 construct: Creative Biomart (assay service)
T7 sequence (O95251 whole entry): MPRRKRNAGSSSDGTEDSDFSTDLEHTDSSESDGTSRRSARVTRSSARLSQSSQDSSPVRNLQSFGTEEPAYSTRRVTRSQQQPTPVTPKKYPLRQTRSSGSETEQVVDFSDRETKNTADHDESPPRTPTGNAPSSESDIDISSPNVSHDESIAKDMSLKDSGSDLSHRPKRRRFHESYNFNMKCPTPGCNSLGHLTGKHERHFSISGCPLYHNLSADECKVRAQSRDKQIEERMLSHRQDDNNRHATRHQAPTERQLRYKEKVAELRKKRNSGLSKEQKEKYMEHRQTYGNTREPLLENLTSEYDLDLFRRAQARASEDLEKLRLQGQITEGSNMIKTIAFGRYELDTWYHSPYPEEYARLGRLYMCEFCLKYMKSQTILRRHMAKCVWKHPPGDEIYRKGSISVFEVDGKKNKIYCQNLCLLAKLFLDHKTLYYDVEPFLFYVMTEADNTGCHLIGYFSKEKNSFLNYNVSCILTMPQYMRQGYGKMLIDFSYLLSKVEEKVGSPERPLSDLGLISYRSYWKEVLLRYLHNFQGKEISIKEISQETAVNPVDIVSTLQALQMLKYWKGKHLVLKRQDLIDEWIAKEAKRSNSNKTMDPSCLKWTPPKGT
Experimental: as §2

[11] = target: T8, MYST4/KAT6b (Homo sapiens, UniProt Q8WYB5); experiment: as above; type: biochemical; details: 10-point dose curve from 100 μM
T8 construct: Creative Biomart (assay service)
Experimental: as §2

[12] = system: A549 tumors; experiment: A549 tumor growth in NSG mice
Experimental: P-value calculated by least squares regression and extra sum-of-squares F-test. N=5 mice per group.
A549 cells were infected with 3 lentiviral shRNAs targeting the human HAT1 mRNA (Origene #TL312517). Six-to-eight-week-old NSG female mice (Jackson Labs #005557) were shaved, then 500,000 A549 tumor cells were injected into bilateral flanks and tumor growth was assessed by tri-dimensional tumor measurements to yield tumor volumes. For drug treatments, analog 2016 was resuspended in a 1:1 mixture of PEG-400 and PBS+1% dialyzed BSA-0.2 μm-filtered (MilliporeSigma #12-660-910GM). Intraperitoneal injections (200 μL) were performed with a 21-G needle. Tumor measurements were performed with digital calipers.

[13] = system: A549 cell line; experiment: Cell growth inhibition (CellTiter-Blue / resazurin); type: cell-based; details: Homo sapiens
Experimental: as §1

[14] = system: HCC1937 cell line; experiment: as above; type: cell-based; details: Homo sapiens
Experimental: as §1

[15] = Fluorescence imaging of harvested organs (compound distribution); type: in vivo, mice; details: 24 hours
Description: Organs were harvested and excited with UV light (230 nm) and imaged with a yellow-green filter.

[16] = system: H4 lysine 5 and 12 acetylation; experiment: Capillary immunoassay of H4 acetylation in hTert-HME1 cells; type: cell-based, human
Experimental: At some timepoints, decreased H4 protein levels were also observed, consistent with prior studies of the effects of HAT1 depletion (J. J. Gruber, et al., Mol Cell 75:711-724 e5, 2019, cited supra).
as §1, with “Microcapillary immunoassays were performed on a SimpleWestern Wes instrument using H4K12-Ac antibody (Abcam ab46983) at 1:25 dilution, H4K5-Ac antibody (Millipore 07-327) at 1:50 dilution, HAT1 (Abcam ab194296) at 1:50 dilution, nascent H4 (Abcam ab7311) at 1:10 dilution, nascent H3 (Abcam ab18521) at 1:50 dilution, actin (Thermo-Fisher MA5-15452) at 1:100 dilution.” left out

## Oc1ccccc1-c1nc2c3ccccc3c3ccccc3c2[nH]1 [NSC-332670]
[1]
  HAT1 inhibitory activity in library screens (rank, active or inactive): inhibitory activity

## O=c1nc2n(C[C@H](O)[C@H](O)[C@H](O)CO)c3cc(Cl)c(Cl)cc3nc-2c(=O)[nH]1 [NSC-42186]
[1]
  IC50: 60.5 µM and 38 µM
[1]; single dose 100 μM
  % inhibition of HAT1 activity: 31%

## CCCC(=O)OC[C@@H](OC(=O)CCC)[C@@H](OC(=O)CCC)[C@H](Cn1c2nc(=O)[nH]c(=O)c-2nc2cc(C)c(C)cc21)OC(=O)CCC [riboflavin tetrabutyrate]
[1]
  IC50: 17 µM

## CC(C)(COP(=O)(O)OP(=O)(O)OC[C@H]1O[C@@H](n2cnc3c(N)ncnc32)[C@H](O)[C@@H]1OP(=O)(O)O)[C@@H](O)C(=O)NCCC(=O)NCCSC(=O)[C@@H](N)CCCCN [lysyl-CoA]
[1]
  inhibition of HAT1/Rbap46 by bi-substrate inhibitors: no inhibitory activity

## CC(=O)OCCn1c2nc(=O)[nH]c(=O)c-2nc2cc(C)c(C)cc21 [NSC-3064]
[1]
  HAT1 inhibitory activity in library screens (rank, active or inactive): top hit

## Cc1cc2nc3c(=O)[nH]c(=O)nc-3n(C[C@H](O)[C@H](O)[C@H](O)CO)c2cc1N(C)C [roseoflavin, reference compound]
[2]
  cell growth inhibition: strong cell growth inhibitory properties
[1]
  HAT1 inhibitory activity in library screens (rank, active or inactive): inactive

## CCc1cc2c(cc1Cl)nc1c(=O)[nH]c(=O)nc-1n2CCOCc1cccc(F)c1 [JG-2069]
[1]
  HAT1 inhibitory activity in library screens (rank, active or inactive): interfered with enzyme inhibition

## NC(=S)c1cn(C2OC(CO)C(O)C2O)c2ncnc(N)c12 (stereo not drawn) [NSC-105827]
[1]
  HAT1 inhibitory activity in library screens (rank, active or inactive): inhibitory activity

## H4K12-CoA: co-enzyme A chemically ligated to the ζ-amine of lysine 12 in the histone H4 N-terminal 20-mer peptide
[3]
  Ki: ~0.001 µM
[2]
  cell growth inhibition: no inhibitory activity
[1]
  inhibition of HAT1/Rbap46 by bi-substrate inhibitors: robust inhibition
  IC50: ~1 µM

## CCc1cc2c(cc1Cl)nc1c(=O)[nH]c(=O)nc-1n2CCOCC(C)C [JG-2016, 7-chloro-8-ethyl-10-(2-isobutoxyethyl)benzo[g]pteridine-2,4(3H, 10H)-dione]
[4]
  tolerated single intraperitoneal dose with minimal toxicity: up to 250 mg/kg
[4]; 500 mg/kg
  toxicity signs: signs of distress
[5]
  IC50: 74.2 µM
[6]
  inhibitory activity towards KAT5: minimal or undetectable inhibitory activity
[7]
  IC50: 90.4 µM
[8]
  inhibitory activity towards PCAF: minimal or undetectable inhibitory activity
[9]
  inhibitory activity towards GCN5: minimal or undetectable inhibitory activity
[10]
  IC50: 84.8 µM
[11]
  inhibitory activity towards MYST4/KAT6b: minimal or undetectable inhibitory activity
[2]
  cell growth inhibition: among the most potent inhibitors of cell growth
[2]; Homo sapiens
  EC50: 10.4 µM
[12]; 50 mg/kg and 100 mg/kg i.p. once every three days from day 13
  tumor growth versus vehicle: significantly impaired tumor growth
[12]; higher dose (100 mg/kg) compared to lower dose (50 mg/kg)
  dose-response of tumor growth suppression: more profound suppression of tumor growth
[13]
  EC50: 1.9 µM
[13]; read-out: IC50 required to impair cell proliferation
  IC50: 1.9 µM
[14]
  EC50: 29.8 µM
[15]; healthy mice, 500 mg/kg i.p.
  tissue accumulation by fluorescence imaging: high accumulation adipose tissue
[15]; mice bearing bilateral A549 tumors, 100 mg/kg once
  tissue accumulation by fluorescence imaging: compound accumulation in subcutaneous adipose tissues (SAT), visceral adipose tissue (VAT), and tumors
[16]; hTert-HME1, EGF stimulation 8, 10, 12 hours
  time course of H4 acetylation inhibition: on-target inhibition as early as 8 hours post-treatment that persisted through 12 hours
[16]; hTert-HME1, dose series
  inhibition of H4 lysine 5 and 12 acetylation: dose-dependent inhibition

## COC1=C(N)C(=O)c2nc(-c3nc(C(=O)O)c(C)c(-c4ccc(OC)c(OC)c4O)c3N)ccc2C1=O [NSC-83950]
[1]
  HAT1 inhibitory activity in library screens (rank, active or inactive): inhibitory activity

## Cc1cc2nc3[nH]c(=O)[nH]c(=O)c3nc2cc1C [di-methyl-alloxazine]
[1]
  HAT1 inhibitory activity of flavonoids in dose-response: no detectable inhibitory activity

## Cc1cc2nc3c(=O)[nH]c(=O)nc-3n(C[C@H](O)[C@H](O)[C@H](O)COP(=O)(O)OP(=O)(O)OC[C@H]3O[C@@H](n4cnc5c(N)ncnc54)[C@H](O)[C@@H]3O)c2cc1C [FAD, flavin-adenine-dinucleotide]
[1]
  HAT1 inhibitory activity of flavonoids in dose-response: no detectable inhibitory activity

## Cc1cc2cc3c(=O)[nH]c(=O)cc-3n(CC(O)C(O)C(O)CO)c2cc1C (stereo not drawn) [NSC-275266]
[1]
  HAT1 inhibitory activity in library screens (rank, active or inactive): fifth best hit

## CCc1cc2c(cc1Cl)nc1c(=O)[nH]c(=O)nc-1n2CCCOc1cccc(C#N)c1 [JG-2088]
[1]
  HAT1 inhibitory activity in library screens (rank, active or inactive): interfered with enzyme inhibition

## Cc1cc2nc3c(=O)[nH]c(=O)nc-3n(C[C@H](O)[C@H](O)[C@H](O)COP(=O)(O)O)c2cc1C [FMN, flavin-mononucleotide]
[1]
  HAT1 inhibitory activity of flavonoids in dose-response: no detectable inhibitory activity

## O=C(O)Cc1ccc(N=Nc2c(O)c(C(=O)O)cc3ccccc23)cc1 [NSC-156563]
[1]
  HAT1 inhibitory activity in library screens (rank, active or inactive): inhibitory activity

## CCc1cc2c(cc1Cl)nc1c(=O)[nH]c(=O)nc-1n2CCOCc1ccc(C#N)cc1 [JG-2092]
[1]
  HAT1 inhibitory activity in library screens (rank, active or inactive): interfered with enzyme inhibition
